# Data from patent publication US11091479B2, “Triazolopyridin-3-ones or their salts and pharmaceutical compositions comprising the same” (YUHAN CORPORATION, priority 2018, dated 2021).
# Counter-ions that a name gives are not always drawn.
# What was measured:
# Assay type in all cases: biochemical
# recombinant human VAP-1 = biological target: T1, recombinant human VAP-1 (Homo sapiens, UniProt Q16853); assay: Activity on recombinant human VAP-1, HRP-coupled Amplex Red hydrogen peroxide assay, benzylamine substrate; settings: 30 min incubation at 37° C., 1 mM benzylamine, read-out: Inhibitory Activity (IC50, nM) human VAP-1
# T1 construct: purchased R&D systems
# T1 sequence (Q16853 1-763): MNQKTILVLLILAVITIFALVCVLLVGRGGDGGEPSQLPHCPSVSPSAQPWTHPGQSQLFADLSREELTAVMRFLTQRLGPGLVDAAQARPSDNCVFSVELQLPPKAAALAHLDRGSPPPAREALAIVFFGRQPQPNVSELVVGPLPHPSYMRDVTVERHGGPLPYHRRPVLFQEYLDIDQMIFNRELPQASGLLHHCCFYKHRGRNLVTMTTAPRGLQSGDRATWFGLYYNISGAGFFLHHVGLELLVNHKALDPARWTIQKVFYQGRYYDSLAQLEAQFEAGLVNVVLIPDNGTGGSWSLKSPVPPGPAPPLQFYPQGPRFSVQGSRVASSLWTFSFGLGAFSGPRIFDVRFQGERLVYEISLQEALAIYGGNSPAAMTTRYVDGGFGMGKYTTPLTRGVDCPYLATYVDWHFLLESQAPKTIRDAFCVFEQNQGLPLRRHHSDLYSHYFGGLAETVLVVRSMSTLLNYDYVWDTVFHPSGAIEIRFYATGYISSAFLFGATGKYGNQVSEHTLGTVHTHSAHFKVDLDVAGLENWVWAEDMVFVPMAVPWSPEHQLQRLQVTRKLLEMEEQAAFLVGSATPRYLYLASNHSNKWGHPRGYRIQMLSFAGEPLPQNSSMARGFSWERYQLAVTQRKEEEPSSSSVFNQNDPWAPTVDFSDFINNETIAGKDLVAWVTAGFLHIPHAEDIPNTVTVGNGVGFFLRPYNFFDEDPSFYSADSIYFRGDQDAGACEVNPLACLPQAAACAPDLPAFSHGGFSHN
# Procedure: (§1) The compounds according to the present technology were evaluated in terms of activity on recombinant human VAP-1 (R&D systems) by measuring the level of hydrogen peroxide in horseradish peroxidase (HRP)-coupled reaction using Amplex Red Hydrogen Peroxide Assay Kit (Molecular Probes, Invitrogen, USA). The experiment was carried out at room temperature using benzylamine as a substrate. In the HRP-coupled reaction, hydrogen peroxide oxidation of 10-acetyl-3,7-dihydroxyphenoxazine (Amplex Red reagent) produces resorufin, which is a highly fluorescent compound. Briefly, the test compound was dissolved in dimethyl sulfoxide (DMSO) at a concentration of 20 mM. The dose-response assessment was made by 1:3 serial dilution in DMSO, thereby creating a 8 point curve. The concentration of the upper part was controlled according to the efficacy of the compounds, followed by dilution with a reaction buffer solution to obtain a final DMSO concentration of less than 1%. To each well of a 96 black well plate, human VAP-1 purified in 50 mM sodium phosphate buffer solution (pH7.4) was added. The test compounds dissolved in DMSO were incubated with the human VAP-1 enzymes at 37° C. for 30 minutes. After 30-minute incubation, each well was added with a reaction mixture containing 200 uM Amplex Red reagent prepared from 50 mM sodium phosphate buffer solution (pH 7.4), 1 mM benzylamine, and 1 U/mL HRP. Fluorescence intensity was measured at several time points during 1-2 hours using a microplate reader (Flexstation3, Molecular Devices) under the wavelength condition exciting at 544 nm and reading the emission at 590 nm. The inhibitory effect of the compounds was measured as a decrease (%) in the signal rate as compared to the control group without any inhibitor (only diluted DMSO). Data was fixed to a logistic model with four variables and IC50 value was calculated using GraphPad Prism program.
# [1] = biological target: T2, recombinant human MAO-A (monoamine oxidase-A) (Homo sapiens, UniProt P21397); assay: Activity on recombinant human MAO-A, method similar to VAP-1 assay, 0.5 mM tyramine substrate; settings: read-out: Inhibitory Activity (IC50, nM) MAO-A
# T2 construct: purchased Sigma-Aldrich
# T2 sequence (P21397 1-527): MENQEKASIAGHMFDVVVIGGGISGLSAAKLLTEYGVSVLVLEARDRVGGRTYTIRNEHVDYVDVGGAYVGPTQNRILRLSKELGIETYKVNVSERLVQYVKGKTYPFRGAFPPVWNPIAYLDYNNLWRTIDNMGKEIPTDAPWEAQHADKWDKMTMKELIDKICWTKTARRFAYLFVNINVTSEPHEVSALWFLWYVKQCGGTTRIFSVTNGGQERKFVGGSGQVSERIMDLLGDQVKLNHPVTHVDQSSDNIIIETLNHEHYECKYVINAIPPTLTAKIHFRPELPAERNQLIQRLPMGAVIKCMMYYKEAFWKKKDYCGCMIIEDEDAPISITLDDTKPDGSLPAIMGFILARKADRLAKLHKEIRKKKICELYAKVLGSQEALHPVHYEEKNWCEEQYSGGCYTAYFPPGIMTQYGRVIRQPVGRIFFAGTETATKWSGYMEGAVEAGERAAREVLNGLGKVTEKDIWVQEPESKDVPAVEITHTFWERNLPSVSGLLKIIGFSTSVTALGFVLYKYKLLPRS
# Procedure: as §1
# (§2) In addition, the compounds according to the present technology were evaluated in terms of activity on a recombinant human MAO-A (monoamine oxidase-A, Sigma-Aldrich) and a recombinant human MAO-B(monoamine oxidase-B, Sigma-Aldrich) by using as substrates, 0.5 mM tyramine and 1 mM benzylamine, respectively, with a method similar to the activity evaluation method for recombinant human VAP-1. The compounds according to the present technology were also evaluated in terms of activity on a recombinant human DAO (diamine oxidase, R&D systems) by using as a substrate 1 mM putrescine with a method similar to the activity evaluation method for recombinant human VAP-1.
# [2] = biological target: T3, recombinant human MAO-B (monoamine oxidase-B) (Homo sapiens, UniProt P27338); assay: Activity on recombinant human MAO-B, method similar to VAP-1 assay, 1 mM benzylamine substrate; settings: read-out: Inhibitory Activity (IC50, nM) MAO-B
# T3 construct: purchased Sigma-Aldrich
# T3 sequence (P27338 1-520): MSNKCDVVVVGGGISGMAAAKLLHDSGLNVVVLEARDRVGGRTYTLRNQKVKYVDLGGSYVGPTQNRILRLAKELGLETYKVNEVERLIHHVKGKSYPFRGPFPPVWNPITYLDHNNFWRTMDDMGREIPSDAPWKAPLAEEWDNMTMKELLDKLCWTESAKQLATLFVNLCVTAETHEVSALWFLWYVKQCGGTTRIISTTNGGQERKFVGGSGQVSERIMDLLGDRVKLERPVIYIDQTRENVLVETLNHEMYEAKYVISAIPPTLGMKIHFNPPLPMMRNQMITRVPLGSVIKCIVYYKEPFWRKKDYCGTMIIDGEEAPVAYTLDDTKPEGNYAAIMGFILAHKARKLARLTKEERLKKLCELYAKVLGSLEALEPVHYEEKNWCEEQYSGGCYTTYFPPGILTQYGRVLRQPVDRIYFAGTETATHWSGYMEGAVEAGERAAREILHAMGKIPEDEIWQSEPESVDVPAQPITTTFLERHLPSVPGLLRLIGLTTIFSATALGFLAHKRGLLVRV
# Procedure: as §1, §2
# [3] = biological target: T4, recombinant human DAO (diamine oxidase) (Homo sapiens, UniProt P19801); assay: Activity on recombinant human DAO, method similar to VAP-1 assay, 1 mM putrescine substrate; settings: read-out: Inhibitory Activity (IC50, nM) DAO
# T4 construct: purchased R&D systems
# T4 sequence (P19801 20-751): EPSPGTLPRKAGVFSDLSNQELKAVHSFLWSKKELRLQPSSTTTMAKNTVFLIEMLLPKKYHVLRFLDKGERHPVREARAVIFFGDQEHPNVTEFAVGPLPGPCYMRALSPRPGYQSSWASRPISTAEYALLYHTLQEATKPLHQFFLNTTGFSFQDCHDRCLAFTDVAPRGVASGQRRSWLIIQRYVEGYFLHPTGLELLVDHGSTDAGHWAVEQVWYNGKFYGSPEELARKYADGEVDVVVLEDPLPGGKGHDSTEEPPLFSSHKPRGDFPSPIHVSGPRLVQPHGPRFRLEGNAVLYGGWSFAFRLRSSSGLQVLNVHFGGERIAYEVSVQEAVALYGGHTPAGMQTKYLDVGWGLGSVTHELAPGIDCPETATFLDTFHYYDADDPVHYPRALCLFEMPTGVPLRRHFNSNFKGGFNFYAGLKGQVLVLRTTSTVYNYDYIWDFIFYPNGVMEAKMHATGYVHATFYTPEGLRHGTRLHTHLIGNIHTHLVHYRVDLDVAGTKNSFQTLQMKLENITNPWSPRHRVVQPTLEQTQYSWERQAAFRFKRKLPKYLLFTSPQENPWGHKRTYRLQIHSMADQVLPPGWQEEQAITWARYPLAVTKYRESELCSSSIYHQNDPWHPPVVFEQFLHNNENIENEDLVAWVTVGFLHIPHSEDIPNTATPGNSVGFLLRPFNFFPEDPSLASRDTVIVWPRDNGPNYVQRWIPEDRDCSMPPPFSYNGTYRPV
# Procedure: as §1, §2
compound,measurement,setting,value
"NCC(Cn1nc2cc(C#Cc3ccc(N4CCOCC4)nc3)ccn2c1=O)=C(F)F [Example 58, 2-[2-(aminomethyl)-3,3-difluoro-allyl]-7-[2-(6-morpholino-3-pyridyl)ethynyl]-[1,2,4]triazolo[4,3-a]pyridin-3-one trifluoroacetate]",IC50,recombinant human VAP-1,0.3 nM
same,IC50,[1],> 100000 nM
same,IC50,[2],5300 nM
same,IC50,[3],34 nM
"CS(=O)(=O)c1cccc(-c2ccn3c(=O)n(C/C(=C/F)CN)nc3c2)c1 [Example 22, 2-[(2E)-2-(aminomethyl)-3-fluoroprop-2-en-1-yl]-7-[3-(methylsulfonyl)phenyl][1,2,4]triazolo[4,3-a]pyridin-3(2H)-one hydrochloride]",IC50,recombinant human VAP-1,0.7 nM
same,IC50,[1],> 100000 nM
same,IC50,[2],180 nM
same,IC50,[3],12 nM
"NC/C(=C\F)Cn1nc2cc(-c3cccc(-c4noc(C5CC5)n4)c3)ccn2c1=O [Example 28, 2-[(2E)-2-(aminomethyl)-3-fluoroprop-2-en-1-yl]-7-[3-(5-cyclopropyl-1,2,4-oxadiazol-3-yl)phenyl][1,2,4]triazolo[4,3-a]pyridin-3(2H)-one hydrochloride]",IC50,recombinant human VAP-1,0.5 nM
same,IC50,[1],> 100000 nM
same,IC50,[2],290 nM
same,IC50,[3],5 nM
"COc1ccc(-c2ccn3c(=O)n(C/C(=C/F)CN)nc3c2)cn1 [Example 31, 2-[(2E)-2-(aminomethyl)-3-fluoroprop-2-en-1-yl]-7-(6-methoxypyridin-3-yl)[1,2,4]triazolo[4,3-a]pyridin-3(2H)-one hydrochloride]",IC50,recombinant human VAP-1,0.3 nM
same,IC50,[1],> 100000 nM
same,IC50,[2],61 nM
same,IC50,[3],5 nM
"NCC(Cn1nc2ccc(Br)cn2c1=O)=C(F)F [Example 46, 2-[2-(aminomethyl)-3,3-difluoro-allyl]-6-bromo-[1,2,4]triazolo[4,3-a]pyridin-3-one trifluoroacetate]",IC50,recombinant human VAP-1,36 nM
same,IC50,[1],> 100000 nM
same,IC50,[2],> 100000 nM
same,IC50,[3],26000 nM
"NC/C(=C\F)Cn1nc2ccc(-c3ccc4c(c3)OCO4)cn2c1=O [Example 12, 2-[(2E)-2-(aminomethyl)-3-fluoroprop-2-en-1-yl]-6-(1,3-benzodioxol-5-yl)[1,2,4]triazolo[4,3-a]pyridin-3(2H)-one hydrochloride]",IC50,recombinant human VAP-1,3.4 nM
same,IC50,[1],14000 nM
same,IC50,[2],< 10 nM
same,IC50,[3],1.1 nM
"NC/C(=C\F)Cn1nc2ccc(-c3ccc(N4CCOCC4)nc3)cn2c1=O [Example 10, 2-[(2E)-2-(aminomethyl)-3-fluoroprop-2-en-1-yl]-6-[6-(morpholin-4-yl)pyridin-3-yl][1,2,4]triazolo[4,3-a]pyridin-3(2H)-one trifluoroacetate]",IC50,recombinant human VAP-1,6.6 nM
same,IC50,[1],> 100000 nM
same,IC50,[2],64 nM
same,IC50,[3],< 100 nM
"NC/C(=C\F)Cn1nc2cc(-c3ccc(C(=O)N4CCOCC4)cc3)ccn2c1=O [Example 24, 2-[(2E)-2-(aminomethyl)-3-fluoroprop-2-en-1-yl]-7-[4-(morpholin-4-ylcarbonyl)phenyl][1,2,4]triazolo[4,3-a]pyridin-3(2H)-one hydrochloride]",IC50,recombinant human VAP-1,0.6 nM
same,IC50,[1],> 100000 nM
same,IC50,[2],> 10000 nM
same,IC50,[3],14 nM
"CN1C(=O)CCc2cc(-c3ccn4c(=O)n(CC(CN)=C(F)F)nc4c3)ccc21 [Example 54, 6-[2-[2-(aminomethyl)-3,3-difluoro-allyl]-3-oxo-[1,2,4]triazolo[4,3-a]pyridin-7-yl]-1-methyl-3,4-dihydroquinolin-2-one trifluoroacetate]",IC50,recombinant human VAP-1,0.1 nM
same,IC50,[1],> 100000 nM
same,IC50,[2],170 nM
same,IC50,[3],22 nM
"NC/C(=C\F)Cn1nc2cc(-c3ccc4c(c3)OCO4)ccn2c1=O [Example 36, 2-[(2E)-2-(aminomethyl)-3-fluoroprop-2-en-1-yl]-7-(1,3-benzodioxol-5-yl)[1,2,4]triazolo[4,3-a]pyridin-3(2H)-one hydrochloride]",IC50,recombinant human VAP-1,0.3 nM
same,IC50,[1],66000 nM
same,IC50,[2],3.8 nM
same,IC50,[3],20 nM
"NCC(Cn1nc2cccc(Br)n2c1=O)=C(F)F [Example 45, 2-[2-(aminomethyl)-3,3-difluoro-allyl]-5-bromo-[1,2,4]triazolo[4,3-a]pyridin-3-one trifluoroacetate]",IC50,recombinant human VAP-1,24 nM
same,IC50,[1],> 100000 nM
same,IC50,[2],> 100000 nM
same,IC50,[3],11000 nM
